Experimental data from publication PMC5103216, “Novel Agonist Bioisosteres and Common Structure-Activity Relationships for The Orphan G Protein-Coupled Receptor GPR139” (Scientific Reports, 2016).
“And” between values parts separate entries of the source, which are not always exact repeats. Identical values can stand only once. Like-named read-outs stand apart in the source and are kept apart here.

Experiments:
GPR139 [1] = biological target: T1, GPR139 (Homo sapiens, UniProt Q6DWJ6); assay: cAMP dynamic 2 assay measuring Gi activation (forskolin) in CHO-139; assay type: cell-based; details: for Inhibition of the cAMP response induced by 5 μM forskolin (Gi), in words: CHO-139
T1 sequence (Q6DWJ6 1-353): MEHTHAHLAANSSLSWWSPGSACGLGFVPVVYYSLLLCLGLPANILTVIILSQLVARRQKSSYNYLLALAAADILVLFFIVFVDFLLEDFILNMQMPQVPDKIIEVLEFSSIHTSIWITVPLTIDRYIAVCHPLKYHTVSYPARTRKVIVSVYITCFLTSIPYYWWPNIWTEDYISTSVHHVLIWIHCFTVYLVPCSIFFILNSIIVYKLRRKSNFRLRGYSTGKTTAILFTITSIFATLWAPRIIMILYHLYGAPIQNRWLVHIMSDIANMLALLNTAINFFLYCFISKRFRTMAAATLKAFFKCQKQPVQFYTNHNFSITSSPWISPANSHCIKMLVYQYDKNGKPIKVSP
Description: (§1) The cAMP assay was performed as described in the work by Thomsen et al.[28] with few modifications. Breifly, CHO-139 and CHO-M1 was detached and resuspended to a concentration of 1 million cells/mL. 5 μL 2x concentrated compound (for Gs: +100 μM IBMX and for Gi: +100 μM IBMX +10 μM forskolin (Fsk)) and 5 μL cell suspension (5,000 cells/well) was mixed. The plate was sealed and incubated at room temperature for 30 min. Next, 10 μL detection reagents (lysis buffer containing 2.5% Eu^3+-anti-cAMP antibody and 2.5% cAMP-d2) was added and the plate was incubated for 1 hour at room temperature. The plate was read on an Envision (PerkinElmer, Waltham, MA, USA). The TR-FRET 665 nm/615 nm ratio, which is inversely proportional with the cAMP production, was used to determination the concentration of the cAMP response. […]
(§2) Supplementary Figure 2. cAMP dynamic 2 assay measuring Gi activation. 5,000 cells/well of CHO-139 (pink bars) or CHO-M1 (blue bars) cells are
(§3) incubated with the indicated compounds for 30 min at room temperature in the presence of 50 µM IBMX and 5 uM Fsk (expect “buffer (-Fsk) where only 50
(§4) µM IBMX is present). The straight line indicate the level of cAMP upon activation with 5 uM Fsk, and the grey area ±10% of the response. The responses are
(§5) one representative out of at two independent experiments performed in triplicates. Data points are means ± SD.

M1 receptor [2] = biological target: T2, M1 receptor (Homo sapiens, UniProt P11229); assay: cAMP dynamic 2 assay measuring Gs activation in CHO-M1 (control); assay type: cell-based
T2 construct: host or cells: CHO-k1
T2 sequence (P11229 1-460): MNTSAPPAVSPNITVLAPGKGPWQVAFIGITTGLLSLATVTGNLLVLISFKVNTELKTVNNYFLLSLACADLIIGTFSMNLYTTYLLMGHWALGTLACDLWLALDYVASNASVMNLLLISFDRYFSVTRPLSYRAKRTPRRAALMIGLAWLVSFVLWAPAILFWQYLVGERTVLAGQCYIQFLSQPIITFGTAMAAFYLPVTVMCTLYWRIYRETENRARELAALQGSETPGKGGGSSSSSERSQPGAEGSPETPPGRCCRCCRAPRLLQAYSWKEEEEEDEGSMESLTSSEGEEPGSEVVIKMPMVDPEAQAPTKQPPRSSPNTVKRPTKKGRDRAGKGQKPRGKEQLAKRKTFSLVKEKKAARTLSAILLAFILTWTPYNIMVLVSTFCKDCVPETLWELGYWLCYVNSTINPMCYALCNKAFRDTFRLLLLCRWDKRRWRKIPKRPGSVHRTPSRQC
Description: as §1
(§6) Supplementary Figure 1. cAMP dynamic 2 assay measuring Gs activation. 5,000 cells/well of CHO-139 (pink bars) or CHO-M1 (blue bars) cells are
(§7) incubated with the indicated compounds for 30 min at room temperature in the presence of 50 µM IBMX. 5 µM and 10 µM forskolin (Fsk) serves as positive
(§8) controls. The responses are one representative out of at two independent experiments performed in triplicates. Data points are means ± SD. […]
(§9) Data points are means ± SD.

[3] = in vivo; cited from earlier work
[4] = not told; cited from earlier work
GPR139 [5] = biological target: T1, GPR139; assay: cAMP dynamic 2 assay measuring Gs activation in CHO-139; assay type: cell-based
Description: as §1, §6, §7, §8, §9

M1 receptor [6] = biological target: T2, M1 receptor; assay: IP-One HTRF assay in CHO-M1 (control); assay type: cell-based
Description: (§10) Figure 3 IP-One HTRF® assay measuring Gq activation. Concentration-response curves of 1a, 7c (racemic), L-Trp, L-Phe, DL43, DL126, DL24, DL22, DL132 and DL130 on (A) CHO-139 and (B) CHO-M1 in the IP-One assay (final conc of LiCl = 20 mM). The dotted line represent the [IP1] response from (A) 10 μM 1a and (B) 1 μM carbachol, which is an agonist for the muscarinic acethylcholine receptor M1 that activates the Gq coupled pathway. The graphs are means ± SEM based on three independent experiments performed in triplicates.
(§11) The IP-One assay was performed as described in the work by Thomsen et al.[28], with few modifications. Breifly, CHO-139 and CHO-M1 were detached and re-suspended to a concentration of 10 million cells/mL. 5 μL 2x concentrated compound (+40 mM LiCl) and 5 μL cell suspension (50,000 cells/well) was mixed. The plate was sealed and incubated at 37 °C for 1 hour. Next, 10 μL detection reagents (lysis buffer containing 2.5% Eu^3+-anti-IP1 antibody and 2.5% IP1-d2) was added and the plate was incubated for 1 hour at room temperature. The plate was read on an Envision (PerkinElmer, Waltham, MA, USA). The time resolved-fluorescence resonance energy transfer (TR-FRET) 665 nm/615 nm ratio, which is inversely proportional to the inositol monophosphate (IP1) accumulation, was used to determine the concentration of the IP1 response.

GPR139 [7] = biological target: T1, GPR139; design: method as in ref 13, 14 (Dvorak et al.); details: relative to L-Trp; 14 (Dvorak et al.); cited from earlier work
GPR139 [8] = biological target: T1, GPR139; design: method as in ref 11 (Shi et al.); details: ref 11 (Shi et al.), cited from earlier work; for EC50: GPR139 agonist potency
GPR139 [9] = biological target: T1, GPR139; assay: IP-One HTRF assay measuring Gq activation in CHO-139; assay type: cell-based; details: for EC50: IP-One HTRF assay, CHO-139, 20 mM LiCl
Description: as §10, §11

GPR139 [10] = biological target: T1, GPR139; assay: GPR139 agonist potency, data from Shi et al. (Lundbeck series); assay type: cell-based
[11] = in vivo; cited from earlier work; remark: listed apart in the source
GPR139 [12] = biological target: T1, GPR139; assay: GPR139 agonist potency, data from Dvorak et al. (Janssen R&D series); assay type: cell-based
GPR139 [13] = biological target: T1, GPR139; design: method as in ref 6, 13 (Liu et al.); details: concentration-dependent calcium response in HEK293 cells; 13 (Liu et al.); cited from earlier work
GPR139 [14] = biological target: T1, GPR139; design: method as in PMID 24826842; details: GPR139 activation; cited from earlier work
GPR139 [15] = biological target: T1, GPR139; design: method as in ref 6, 13 (Liu et al.); details: [35S]GTPγS binding, membranes from COS7 cells; 13 (Liu et al.); cited from earlier work
GPR139 [16] = biological target: T1, GPR139; design: method as in ref 6, 13 (Liu et al.); details: calcium mobilization in HEK293; 13 (Liu et al.); cited from earlier work
M1 receptor [17] = biological target: T2, M1 receptor; assay: cAMP dynamic 2 assay measuring Gi activation (forskolin) in CHO-M1 (control); assay type: cell-based; details: CHO-M1, high concentrations; unspecific response
Description: as §1, §2, §3, §4, §5

GPR139 [18] = biological target: T1, GPR139; design: method as in ref 15 (Hitchcock et al.); details: ref 15 (Hitchcock et al.); cited from earlier work

Row | Compound | Inhibition of the cAMP response induced by 5 μM forskolin (Gi), in words (GPR139 [1]) | Gs response (cAMP) (M1 receptor [2]) | Gs response (cAMP) (GPR139 [5]) | IP1 response in CHO-M1 cells (M1 receptor [6]) | Emax (GPR139 [8]) [%] | EC50 (GPR139 [9]) [µM] | fold reduction of potency vs. 1a (GPR139 [10]) | EC50 (GPR139 [8]) [µM] | other results
1 | C[C@H](NC(=O)CNC(=O)c1cccc(Cl)c1)c1ccccc1 (racemic) [7c] | none of the tested compounds were able to inhibit the cAMP response | None of the tested compounds induced Gs response | None of the tested compounds induced Gs response | no response is seen in CHO-M1 cells | – | – | – | – | brain to plasma ratio [3]: 1.2; efflux potential [4]: no efflux potential; Emax (GPR139 [7]): 138%
2 | COc1cc(OC)cc(C(=O)NNC(=O)Nc2cccc3ccccc23)c1 [1a] | none of the tested compounds were able to inhibit the cAMP response | None of the tested compounds induced Gs response | None of the tested compounds induced Gs response | no response is seen in CHO-M1 cells | 100 | 1.05 | – | – | –
3 | COc1ccccc1C(=O)NNC(=O)Nc1cccc2ccccc12 [1c] | – | – | – | – | 79 | – | ~ 16 fold | 0.62 | –
4 | COc1cccc(C(=O)NNC(=O)Nc2cccc3ccccc23)c1 [1f] | – | – | – | – | 100 | – | ~ 26 fold | 1 | –
5 | COc1cc(OC)cc(C(=O)NNC(=O)Cc2cccc3ccccc23)c1 [1s] | – | – | – | – | 95 | – | 2 fold and ~ 2.4 fold | 0.088 | brain exposure [11]: failed to increase brain exposure due to low plasma levels
6 | C[C@H](NC(=O)CNC(=O)c1ccccc1Cl)c1ccccc1 [7b] | – | – | – | – | – | – | – | – | fold reduction of potency vs. 7c (GPR139 [12]): ~ 3 fold; Emax (GPR139 [7]): 120%
7 | N[C@@H](Cc1ccccc1)C(=O)O [L-Phe, L-Phenylalanine] | none of the tested compounds were able to inhibit the cAMP response | None of the tested compounds induced Gs response | None of the tested compounds induced Gs response | no response is seen in CHO-M1 cells | – | 4450 | – | – | EC50 (GPR139 [13]): 60 µM; EC50 (GPR139 [14]): 320 µM; EC50 (GPR139 [15]): 31 µM; EC50 (GPR139 [16]): 411 µM
8 | N[C@@H](Cc1c[nH]c2ccccc12)C(=O)O [L-Trp, L-Tryptophan] | – | None of the tested compounds induced Gs response | None of the tested compounds induced Gs response | no response is seen in CHO-M1 cells | – | ~8500 | – | – | Inhibition of the 5 μM forskolin induced cAMP response (GPR139 [1]; CHO-139, high concentrations): more than 10%; EC50 (GPR139 [13]): 49 µM; agonist type (GPR139 [9]; IP-One assay, compared to compound 1a): super-agonists; Inhibition of the 5 μM forskolin induced cAMP response (M1 receptor [17]): more than 10%; EC50 (GPR139 [14]): 220 µM; EC50 (GPR139 [15]): 26 µM; EC50 (GPR139 [16]): 287 µM
9 | COc1ccc(C(C)NC(=O)Cn2nnc3cc(C)ccc3c2=O)cc1 (centres unmarked) [compound 35] | – | – | – | – | – | – | – | – | EC50 (GPR139 [18]): 0.042 µM
10 | COc1ccc(C(C)NC(=O)Cn2nnc3cc(OC)ccc3c2=O)cc1 (centres unmarked) [compound 37] | – | – | – | – | – | – | – | – | EC50 (GPR139 [18]): 0.037 µM
